The results in this text go back to patent publication US20030175319A1, “Method for controlling termite” (SUMITOMO CHEMICAL COMPANY, LIMITED, priority 2002, published 2003).

The subject of experiment [1] is Formosan subterranean termites (Coptotermes formosanus). The experiment in a line: Test Example 1: mortality of termites released in a plastic cup with the sheet formulation. Type of experiment: in vivo. As to conditions: for Mortality (%): 2.5 g sheet formulation, 100 termites. The method, then: The sheet formulation obtained in Formulation example 1 or 2 (2.5 g) was put in a plastic cup (8.5 cm in diameter). The plastic cup was set inside a large cup having wet cotton for supplying moisture and 100 Formosan subterranean termites (Coptotermes formosanus) were released in the plastic cup. After 2, 4 and 8 weeks, the mortality of the termites was observed. Further, the same sheet formulation as Formulation example 2 except that hexaflumuron was used in place of bistrifluron was tested for reference.

Experiment [2] deals with Formosan subterranean termites. The experiment in a line: Test Example 2: field test, sheet formulation buried at tree stumps damaged by termites. Type of experiment: in vivo, Coptotermes formosanus. The following applies: conclusion from Table 2. From the text:
In a place termites inhabit, two tree stumps (A and B) damaged by Formosan subterranean termites were found. The distance between A and B is about 500 m. Two wooden blocks (φ75 mm×78 mm) were buried near A and B, respectively.
After all the wooden blocks were damaged by the termites, each of about 60 g of the sheet formulation obtained in Formulation example 2 was buried in place of the damaged wooden blocks at A. On the other hand, the same sheet formulation as Formulation example 2 except that hexaflumuron was used in place of bistrifluron was used at B. Further, two of the sheet formulation were added at A and B respectively, after two weeks. […]
Soldiers are usually in their colony. At emergency, soldiers are observed.

`O=C(NC(=O)c1c(F)cccc1F)Nc1cc(Cl)c(OC(F)(F)C(F)F)c(Cl)c1` [Hexaflumuron, 1-[3,5-dichloro-4-(1,1,2,2-tetrafluoroethoxy)phenyl]-3-(2,6-difluorobenzoyl)urea]: the figures for the “Mortality (%)” value in experiment [1] (after 2 weeks), in experiment [1] (after 4 weeks) and in experiment [1] (after 8 weeks) were 5%, 34% and 100%, respectively.
In the case of `O=C(NC(=O)c1c(F)cccc1F)Nc1cc(C(F)(F)F)cc(C(F)(F)F)c1Cl` [bistrifluron, N-[2-chloro-3,5-bis(trifluoromethyl)phenyl]-N′-(2,6-difluorobenzoyl)urea], the “rapidity of efficacy compared with hexaflumuron” value in experiment [1] (conclusion from Table 1) and in experiment [2] was “more rapid efficacy than hexaflumuron” in each case.
